According to EP4752152A1, “STEROID COMPOUND, AND PREPARATION METHOD THEREFOR AND USE THEREOF” (Cholesgen (Shanghai) Co.Ltd., priority 2023, dated 2025):
Like-named read-outs stand apart in the source and are kept apart here.

Key:
[1] = test system: Fatty Acid Synthase (FASN) gene; test: Inhibition of FASN gene expression (qPCR) in Huh-7 cells; format: cell-based, human; details: Homo sapiens, Huh-7 cells, starvation medium, 16 hours, qPCR, class symbols, read-out: FASN IC50
Protocol: Huh-7 cells (purchased from ATCC) were cultured in DMEM medium (containing 10% fetal bovine serum LONSERA S711-001S) at 37°C in a 5% CO2 incubator. After 24 hours, the original medium was aspirated and replaced with DMEM starvation medium (containing 5% lipoprotein deficient serum (LPDS), 2 µM lovastatin, and 10 µM mevalonate). The control group was treated with dimethyl sulfoxide (DMSO), while the compound treatment groups were treated with different concentrations of compounds. The highest concentration of the compound was 3000 nM, with 3-fold dilutions, totaling 5 concentrations. The cells were cultured for 16 hours. Cell lysis was performed, followed by reverse transcription from cells to cDNA, and qPCR was performed to detect the expression of the SREBP target gene Fatty Acid Synthase (FASN) gene (FASN gene forward primer sequence: 5'-[…]-3', reverse primer sequence: 5'-[…]-3'). The IC50 was calculated. The test data for each test compound were analyzed using Prism software (with the DMSO-treated group as the reference to calculate the compound inhibition rate, fitted using the Prism log(inhibitor) vs. responseVariable slope (four-parameter) model, calculation formula: Y = Bottom + (Top - Bottom)/(1 + 10^((LogIC50 - X) × HillSlope))), to obtain the IC50 parameters of the compounds. Table 4: Inhibition results of FASN gene expression by compounds from some examples

[2] = test system: SREBP pathway; test: SREBP luciferase reporter gene system (SRE-luciferase assay); format: cell-based, human; details: Huh-7/SRE-luc cells, sterol-deficient medium, 0.01-10 µM
Outline: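 Readout was SRE-driven luciferase normalised to GFP fluorescence in lysates of stably transfected Huh-7/SRE-luc hepatoma cells. Compounds (0.01, 0.03, 0.1, 0.3, 1.0, 3.0, 10 µM; DMSO control) were applied for 16 h in sterol-depleted medium with 2 µM lovastatin and 10 µM mevalonate; IC50 from variable-slope fit.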

Row | SMILES | IC50 ([1]; Huh-7, 16 h) | IC50 ([2]; Homo sapiens, Huh-7, 16 h) | IC50 ([2]; 16 hours) | IC50 [1] | IC50 ([2]; Homo sapiens, 16 hours)
1 | COc1cc(Cl)ccc1[C@H](O)CCC[C@@H](C)[C@H]1CC[C@H]2[C@H]3[C@H](CC[C@]12C)[C@@]1(C)CC[C@H](O)[C@H](O)[C@@H]1CC3(F)F [Compound 113, (1R,3aS,3bS,5aR,6R,7S,9aR,9bS,11aR)-1-[(2R,6R)-6-(4-chloro-2-methoxyphenyl)-6-hydroxyhexan-2-yl]-4,4-difluoro-9a,11a-dimethylhexadecahydro-1H-cyclopenta[1,2-a]phenanthrene-6,7-diol] | 200 to 500 nM | 0.228 µM | – | – | –
2 | C[C@H](CCC[C@@H](O)c1nc2ccccc2n1C)[C@H]1CC[C@H]2[C@H]3[C@H](CC[C@]12C)[C@@]1(C)CC[C@H](O)[C@H](O)[C@@H]1CC3(F)F [Compound 307, (1R,3aS,3bS,5aR,6R,7S,9aR,9bS,11aR)-4,4-difluoro-1-[(2R,6R)-6-hydroxy-6-(1-methylbenzo[d]imidazol-2-yl)hexan-2-yl]-9a,11a-dimethylhexadecahydro-1H-cyclopenta[1,2-a]phenanthrene-6,7-diol] | < 200 nM | 0.054 µM | – | – | –
3 | C[C@H](CCCC(O)c1cccc2ncn(C)c12)[C@H]1CC[C@H]2[C@H]3[C@H](CC[C@]12C)[C@@]1(C)CC[C@H](O)[C@H](O)[C@@H]1CC3(F)F (single isomer, unassigned) [Compound 299, (1R,3aS,3bS,5aR,6R,7S,9aR,9bS,11aR)-4,4-difluoro-1-[(2R,6R)-6-hydroxy-6-(3-methylbenzo[d]imidazol-4-yl)hexan-2-yl]-9a,11a-dimethylhexadecahydro-1H-cyclopenta[1,2-a]phenanthrene-6,7-diol or (1R,3aS,3bS,5aR,6R,7S,9aR,9bS,11aR)-4,4-difluoro-1-[(2R,6S)-6-hydroxy-6-(3-methylbenzo[d]imidazol-4-yl)hexan-2-yl]-9a,11a-dimethylhexadecahydro-1H-cyclopenta[1,2-a]phenanthrene-6,7-diol] | < 200 nM | 0.033 µM | – | – | –
4 | C[C@H](CCCC(O)c1cccc2cnn(C)c12)[C@H]1CC[C@H]2[C@H]3[C@H](CC[C@]12C)[C@@]1(C)CC[C@H](O)[C@H](O)[C@@H]1CC3(F)F (single isomer, unassigned) [Compound 244, (1R,3aS,3bS,5aR,6R,7S,9aR,9bS,11aR)-4,4-difluoro-1-[(2R,6R)-6-hydroxy-6-(1-methylindazol-7-yl)hexan-2-yl]-9a,11a-dimethylhexadecahydro-1H-cyclopenta[1,2-a]phenanthrene-6,7-diol or (1R,3aS,3bS,5aR,6R,7S,9aR,9bS,11aR)-4,4-difluoro-1-[(2R,6S)-6-hydroxy-6-(1-methylindazol-7-yl)hexan-2-yl]-9a,11a-dimethylhexadecahydro-1H-cyclopenta[1,2-a]phenanthrene-6,7-diol] | < 200 nM | – | 0.06 µM | – | –
5 | C[C@H](CCCC(O)c1c(F)cccc1F)[C@H]1CC[C@H]2C3=C(F)CC4C[C@@H](O)CC[C@]4(C)[C@H]3CC[C@]12C (stereo in doubt) [Compound 82, (1R,3aR,7S,9aS,9bR,11aR)-1-[(2R)-6-(2,6-difluorophenyl)-6-hydroxyhexan-2-yl]-4-fluoro-9a,11a-dimethyl-2,3,3a,5,5a,6,7,8,9,9a,9b,10,11,11a-tetradecahydro-1H-cyclopenta[1,2-a]phenanthren-7-ol] | 200 to 500 nM | 0.357 µM | – | – | –
6 | C[C@H](CCCC(O)c1ccc(F)nc1OC1CC1)[C@H]1CC[C@H]2[C@H]3[C@H](CC[C@]12C)[C@@]1(C)CC[C@H](O)C[C@@H]1CC3(F)F (stereo partly drawn) [Compound 335] | – | – | – | < 200 nM | 0.045 µM
7 | COc1ccc(C(O)CCC[C@@H](C)[C@H]2CC[C@H]3[C@H]4[C@H](CC[C@]23C)[C@@]2(C)CC[C@H](O)[C@H](O)[C@@H]2CC4(F)F)c(F)n1 (single isomer, unassigned) [Compound 241, (1R,3aS,3bS,5aR,6R,7S,9aR,9bS,11aR)-4,4-difluoro-1-[(2R,6R)-6-(2-fluoro-6-methoxypyridin-3-yl)-6-hydroxyhexan-2-yl]-9a,11a-dimethylhexadecahydro-1H-cyclopenta[1,2-a]phenanthrene-6,7-diol or (1R,3aS,3bS,5aR,6R,7S,9aR,9bS,11aR)-4,4-difluoro-1-[(2R,6S)-6-(2-fluoro-6-methoxypyridin-3-yl)-6-hydroxyhexan-2-yl]-9a,11a-dimethylhexadecahydro-1H-cyclopenta[1,2-a]phenanthrene-6,7-diol] | < 200 nM | 0.14 µM | – | – | –
8 | C[C@H](CCCC(O)c1nccs1)[C@H]1CC[C@H]2[C@H]3[C@H](CC[C@]12C)[C@@]1(C)CC[C@H](O)[C@H](O)[C@@H]1CC3(F)F (stereo partly drawn) [Compound 89, (1R,3aS,3bS,5aR,6R,7S,9aR,9bS,11aR)-4,4-difluoro-1-[(2R)-6-hydroxy-6-(1,3-thiazol-2-yl)hexan-2-yl]-9a,11a-dimethylhexadecahydro-1H-cyclopenta[1,2-a]phenanthrene-6,7-diol] | < 200 nM | 0.183 µM | – | – | –
9 | COc1cc(F)ccc1C(O)CCC[C@@H](C)[C@H]1CC[C@H]2[C@H]3[C@H](CC[C@]12C)[C@@]1(C)CC[C@H](O)C(=O)[C@@H]1CC3(F)F (stereo partly drawn) [Compound 184, (1R,3aS,3bS,5aR,7S,9aR,9bS,11aR)-4,4-difluoro-1-[(2R)-6-(4-fluoro-2-methoxyphenyl)-6-hydroxyhexan-2-yl]-7-hydroxy-9a,11a-dimethylhexadecahydro-1H-cyclopenta[1,2-a]phenanthren-6-one] | < 200 nM | 0.031 µM | – | – | –
10 | C[C@H](CCC[C@@H](O)c1c(F)ccnc1F)[C@H]1CC[C@H]2[C@H]3[C@H](CC[C@]12C)[C@@]1(C)CC[C@H](O)[C@H](O)[C@@H]1CC3(F)F (single isomer, unassigned) [Compound 232] | 200 to 500 nM | 0.151 µM | – | – | –
11 | COc1cc(F)c([C@@H](O)CCC[C@@H](C)[C@H]2CC[C@H]3[C@H]4[C@H](CC[C@]23C)[C@@]2(C)CC[C@H](O)[C@H](O)[C@@H]2CC4(F)F)c(F)c1Br (single isomer, unassigned) [Compound 198] | < 200 nM | 0.058 µM | – | – | –
12 | C[C@H](CCCC(O)c1ccccc1F)[C@H]1CC[C@H]2C3=C(F)CC4C[C@@H](O)CC[C@]4(C)[C@H]3CC[C@]12C (stereo partly drawn) [Compound 75, (1R,3aR,7S,9aS,9bR,11aR)-4-fluoro-1-[(2R)-6-(2-fluorophenyl)-6-hydroxyhexan-2-yl]-9a,11a-dimethyl-2,3,3a,5,5a,6,7,8,9,9a,9b,10,11,11a-tetradecahydro-1H-cyclopenta[1,2-a]phenanthren-7-ol] | < 200 nM | 0.37 µM | – | – | –
13 | COc1cccc(F)c1C(O)CCC[C@@H](C)[C@H]1CC[C@H]2C3=C(F)C[C@H]4[C@@H](O)[C@@H](O)CC[C@]4(C)[C@H]3CC[C@]12C (stereo partly drawn) [Compound 105, (1R,3aR,5aR,6R,7S,9aR,9bR,11aR)-4-fluoro-1-[(2R)-6-(2-fluoro-6-methoxyphenyl)-6-hydroxyhexan-2-yl]-9a,11a-dimethyl-2,3,3a,5,5a,6,7,8,9,9a,9b,10,11,11a-tetradecahydro-1H-cyclopenta[1,2-a]phenanthrene-6,7-diol] | 200 to 500 nM | 0.109 µM | – | – | –
14 | COc1ccc(C(O)CCC[C@@H](C)[C@H]2CC[C@H]3[C@H]4[C@H](CC[C@]23C)[C@@]2(C)CC[C@H](O)[C@H](O)[C@@H]2CC4(F)F)c(OC)n1 (stereo partly drawn) [Compound 177, (1R,3aS,3bS,5aR,6R,7 S,9aR,9bS,11aR)-1-[(2R)-6-(2,6-Dimethoxypyridin-3-yl)-6-hydroxyhexan-2-yl]-4,4-difluoro-9a,11a-dimethylhexadecahydro-1H-cyclopenta[1,2-a]phenanthrene-6,7-diol] | < 200 nM | 0.186 µM | – | – | –
15 | COc1cc(F)cc(F)c1C(O)CCC[C@@H](C)[C@H]1CC[C@H]2[C@H]3[C@H](CC[C@]12C)[C@@]1(C)CC[C@H](O)[C@H](O)[C@@H]1CC3(F)F (single isomer, unassigned) [Compound 200, (1R,3aS,3bS,5aR,6R,7S,9aR,9bS,11aR)-1-[(2R,6S)-6-(4,6-difluoro-2-methoxyphenyl)-6-hydroxyhexan-2-yl]-4,4-difluoro-9a,11a-dimethylhexadecahydro-1H-cyclopenta[1,2-a]phenanthrene-6,7-diol or (1R,3aS,3bS,5aR,6R,7S,9aR,9bS,11aR)-1-[(2R,6R)-6-(4,6-difluoro-2-methoxyphenyl)-6-hydroxyhexan-2-yl]-4,4-difluoro-9a, 11a-dimethylhexadecahydro-1H-cyclopenta[1,2-a]phenanthrene-6,7-diol] | < 200 nM | 0.053 µM | – | – | –
